Reference: article PMC8555546, “Conductance stability and Na+ interaction with Shab K+ channels under low K+ conditions” (Channels, 2021)

Target: T1, Shab K+ channel (dShab 11) (Drosophila melanogaster, UniProt P17970)
T1 construct: Shab cDNA (dShab 11) by recombinant baculovirus in Sf9 insect cells; homotetramer
T1 sequence (P17970 1-1015): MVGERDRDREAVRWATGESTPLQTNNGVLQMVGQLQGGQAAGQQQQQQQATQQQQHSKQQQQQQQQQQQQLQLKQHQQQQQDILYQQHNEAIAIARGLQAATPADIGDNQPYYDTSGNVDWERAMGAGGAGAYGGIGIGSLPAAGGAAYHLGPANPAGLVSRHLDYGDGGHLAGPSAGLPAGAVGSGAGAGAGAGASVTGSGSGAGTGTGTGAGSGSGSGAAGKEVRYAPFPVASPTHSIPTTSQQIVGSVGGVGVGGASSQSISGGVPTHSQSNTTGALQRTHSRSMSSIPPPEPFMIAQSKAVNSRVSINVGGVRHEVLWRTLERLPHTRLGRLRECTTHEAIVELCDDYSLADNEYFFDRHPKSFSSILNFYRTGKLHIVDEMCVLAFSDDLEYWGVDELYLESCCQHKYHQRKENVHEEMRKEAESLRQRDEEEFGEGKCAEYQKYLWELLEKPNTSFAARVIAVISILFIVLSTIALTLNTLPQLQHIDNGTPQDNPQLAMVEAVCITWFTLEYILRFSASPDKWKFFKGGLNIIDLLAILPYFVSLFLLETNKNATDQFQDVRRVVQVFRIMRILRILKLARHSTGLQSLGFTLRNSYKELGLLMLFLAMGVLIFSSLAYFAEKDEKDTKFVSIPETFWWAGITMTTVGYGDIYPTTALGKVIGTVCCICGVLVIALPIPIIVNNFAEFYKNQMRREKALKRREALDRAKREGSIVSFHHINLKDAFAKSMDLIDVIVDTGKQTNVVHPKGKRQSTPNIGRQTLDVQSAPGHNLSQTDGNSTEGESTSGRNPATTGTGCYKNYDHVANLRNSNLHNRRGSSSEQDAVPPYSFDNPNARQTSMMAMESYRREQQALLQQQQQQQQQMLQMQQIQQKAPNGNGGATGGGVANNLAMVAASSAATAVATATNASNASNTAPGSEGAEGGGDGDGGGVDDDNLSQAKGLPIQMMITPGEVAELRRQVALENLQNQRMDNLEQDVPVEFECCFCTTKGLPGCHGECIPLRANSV
Assay: whole-cell patch clamp, block of K+ current, Michaelis-Menten fit
Format: cell-based

Kd: 10.8 mM
SMILES: CC[N+](CC)(CC)CC [TEA]
